The numbers were not newly measured in patent publication US20070065359A1, “Nanocells for diagnosis and treatment of diseases and disorders” (priority 2005, published 2007), which cites them from elsewhere.

This series deals with TF antigen. The conditions noted are these: peptide displayed as a monomer; read-out: affinity for the TF antigen.

Consider “IVWHRWYAWSPASRI [TF antigen-binding peptide, I—V—W—H—R—W—Y-A-W—S—P-A-S—R—I]”, for which the Kd was 600 nM.
